Data reported in patent US20230114728A1 (Venatorx Pharmaceuticals, Inc., priority 2019, published 2023).
Converted amounts (≈) assume the structure as drawn. Where two headings read alike, the source gives them in different places.

Key:
Test in all cases: Broth microdilution MIC in CAMHB
Type in all cases: cell-based
[1] = system: K. pneumoniae SI-117 producing VIM-1; settings: Klebsiella pneumoniae, read-out: Minimum Inhibitory Concentration, K. pneumoniae SI-117
Summary of the method: (§1)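 Standard CLSI-style microdilution in cation-adjusted Mueller Hinton broth, 2-fold dilution series, incubated 16-20 h at 37° C; endpoint was visual absence of growth.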

[2] = system: P. aeruginosa (ΔmexAB-oprM); settings: Pseudomonas aeruginosa, read-out: Minimum Inhibitory Concentration, P. aeruginosa ΔmexAB-OprM
Summary of the method: as §1

A. baumannii ATCC 19606 = settings: Acinetobacter baumannii
Summary of the method: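 Hyper-permeable or efflux-deficient strains serve to probe outer-membrane penetration. Growth inhibition is scored visually after 16-20 h at 37° C in CAMHB, starting from 2-8×10^5 CFU/mL.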

[3] = system: K. pneumoniae 848844 producing SHV-11 and KPC-2; settings: Klebsiella pneumoniae, read-out: Minimum Inhibitory Concentration, K. pneumoniae 848844
Summary of the method: as §1

P. aeruginosa ATCC 35151 = settings: Pseudomonas aeruginosa
Summary of the method: as §1

E. coli 901C = settings: Escherichia coli, read-out: Minimum Inhibitory Concentration, E. coli 901C
Summary of the method: as §1

[4] = system: K. pneumoniae UMM producing SHV-5 and KPC-2; settings: Klebsiella pneumoniae, read-out: Minimum Inhibitory Concentration, K. pneumoniae UMM
Summary of the method: as §1

P. aeruginosa ATCC 27853 = settings: Pseudomonas aeruginosa
Summary of the method: as §1

E. coli AG100 = settings: Escherichia coli
Summary of the method: as §1

E. coli AG100A = settings: Escherichia coli, read-out: Minimum Inhibitory Concentration, E. coli AG100A
Summary of the method: as §1

E. coli ATCC 25922 = settings: Escherichia coli
Summary of the method: as §1

E. coli D22 = settings: Escherichia coli
Summary of the method: as §1

[5] = ATCC19606, MHB, read-out: Minimum Inhibitory Concentration, A. baumannii ATCC 19606
[6] = ATCC35151, MHB, hyper-permeable strain, read-out: Minimum Inhibitory Concentration, P. aeruginosa ATCC 35151
[7] = E. coli 901C (hyper-permeable), MHB
[8] = ATCC27853, MHB, read-out: Minimum Inhibitory Concentration, P. aeruginosa ATCC 27853
[9] = E. coli AG100 (wild-type parent), MHB, read-out: Minimum Inhibitory Concentration, E. coli AG100
[10] = ATCC25922, E. coli ATCC 25922, MHB, read-out: Minimum Inhibitory Concentration, E. coli 25922
[11] = E. coli D22 (hyper-permeable), MHB, read-out: Minimum Inhibitory Concentration, E. coli D22

CCN1CCN(C(=O)NC(C(=O)N[C@H]2Cc3cccc(C(=O)O)c3OB2O)c2ccc(O)c(N)c2)C(=O)C1=O (stereo partly drawn) [Example 29, (3R)-3-(2-(3-amino-4-hydroxyphenyl)-2-(4-ethyl-2,3-dioxopiperazine-1-carboxamido)acetamido)-2-hydroxy-3,4-dihydro-2H-benzo[e][1,2]oxaborinine-8-carboxylic acid]
MIC [1]: 32 to 64 µg/mL (≈ 59.3 to 119 µM)
MIC [2]: 8 to 16 µg/mL (≈ 14.8 to 29.7 µM)
MIC (A. baumannii ATCC 19606; [5]): > 128 µg/mL
MIC [3]: > 128 µg/mL
MIC (P. aeruginosa ATCC 35151; [6]): 0.5 to 1 µg/mL (≈ 0.927 to 1.85 µM)
MIC (E. coli 901C; [7]): 0.5 to 1 µg/mL (≈ 0.927 to 1.85 µM)
MIC [4]: 32 to 64 µg/mL (≈ 59.3 to 119 µM)
MIC (P. aeruginosa ATCC 27853; [8]): > 128 µg/mL
MIC (E. coli AG100; [9]): 32 to 64 µg/mL (≈ 59.3 to 119 µM)
MIC (E. coli AG100A): 2 to 4 µg/mL (≈ 3.71 to 7.42 µM)
MIC (E. coli ATCC 25922; [10]): 32 to 64 µg/mL (≈ 59.3 to 119 µM)
MIC (E. coli D22; [11]): 2 to 4 µg/mL (≈ 3.71 to 7.42 µM)

CCN1CCN(C(=O)NC(C(=O)N[C@H]2Cc3cccc(C(=O)O)c3OB2O)c2ccc(O)c(NS(N)(=O)=O)c2)C(=O)C1=O (stereo partly drawn) [Example 30, (3R)-3-(2-(4-ethyl-2,3-dioxopiperazine-1-carboxamido)-2-(4-hydroxy-3-(sulfamoylamino)phenyl)acetamido)-2-hydroxy-3,4-dihydro-2H-benzo[e][1,2]oxaborinine-8-carboxylic acid]
MIC [1]: 32 to 64 µg/mL (≈ 51.7 to 103 µM)
MIC [2]: 8 to 16 µg/mL (≈ 12.9 to 25.9 µM)
MIC (A. baumannii ATCC 19606; [5]): > 128 µg/mL
MIC [3]: > 128 µg/mL
MIC (P. aeruginosa ATCC 35151; [6]): 0.5 to 1 µg/mL (≈ 0.809 to 1.62 µM)
MIC (E. coli 901C; [7]): 0.5 to 1 µg/mL (≈ 0.809 to 1.62 µM)
MIC [4]: 32 to 64 µg/mL (≈ 51.7 to 103 µM)
MIC (P. aeruginosa ATCC 27853; [8]): > 128 µg/mL
MIC (E. coli AG100; [9]): 32 to 64 µg/mL (≈ 51.7 to 103 µM)
MIC (E. coli AG100A): 2 to 4 µg/mL (≈ 3.23 to 6.47 µM)
MIC (E. coli ATCC 25922; [10]): 8 to 16 µg/mL (≈ 12.9 to 25.9 µM)
MIC (E. coli D22; [11]): 2 to 4 µg/mL (≈ 3.23 to 6.47 µM)

CCN1CCN(C(=O)NC(C(=O)N[C@H]2Cc3cccc(C(=O)O)c3OB2O)c2ccc(C(=O)O)c(F)c2)C(=O)C1=O (stereo partly drawn) [Example 31, (3R)-3-(2-(4-carboxy-3-fluorophenyl)-2-(4-ethyl-2,3-dioxopiperazine-1-carboxamido)acetamido)-2-hydroxy-3,4-dihydro-2H-benzo[e][1,2]oxaborinine-8-carboxylic acid]
MIC [1]: > 128 µg/mL
MIC [2]: 8 to 16 µg/mL (≈ 14 to 28.1 µM)
MIC (A. baumannii ATCC 19606; [5]): > 128 µg/mL
MIC [3]: > 128 µg/mL
MIC (P. aeruginosa ATCC 35151; [6]): < 0.25 µg/mL
MIC (E. coli 901C; [7]): < 0.25 µg/mL
MIC [4]: 32 to 64 µg/mL (≈ 56.1 to 112 µM)
MIC (P. aeruginosa ATCC 27853; [8]): 32 to 64 µg/mL (≈ 56.1 to 112 µM)
MIC (E. coli AG100; [9]): 32 to 64 µg/mL (≈ 56.1 to 112 µM)
MIC (E. coli AG100A): 2 to 4 µg/mL (≈ 3.51 to 7.01 µM)
MIC (E. coli ATCC 25922; [10]): 32 to 64 µg/mL (≈ 56.1 to 112 µM)
MIC (E. coli D22; [11]): 2 to 4 µg/mL (≈ 3.51 to 7.01 µM)

N[C@@H](C(=O)N[C@H]1Cc2ccc(F)c(C(=O)O)c2OB1O)c1ccc(OS(=O)(=O)F)cc1 [Example 32, (R)-3-((R)-2-amino-2-(4-((fluorosulfonyl)oxy)phenyl)acetamido)-7-fluoro-2-hydroxy-3,4-dihydro-2H-benzo[e][1,2]oxaborinine-8-carboxylic acid]
MIC [1]: > 128 µg/mL
MIC [2]: > 128 µg/mL
MIC (A. baumannii ATCC 19606; ATCC19606, read-out: Minimum Inhibitory Concentration, A. baumannii ATCC 19606): > 128 µg/mL
MIC [3]: > 128 µg/mL
MIC (P. aeruginosa ATCC 35151; ATCC35151, read-out: Minimum Inhibitory Concentration, P. aeruginosa ATCC 35151): > 128 µg/mL
MIC (E. coli 901C; 901C): > 128 µg/mL
MIC [4]: > 128 µg/mL
MIC (P. aeruginosa ATCC 27853; ATCC27853, read-out: Minimum Inhibitory Concentration, P. aeruginosa ATCC 27853): > 128 µg/mL
MIC (E. coli AG100; AG100, read-out: Minimum Inhibitory Concentration, E. coli AG100): > 128 µg/mL
MIC (E. coli AG100A): > 128 µg/mL
MIC (E. coli ATCC 25922; ATCC25922, read-out: Minimum Inhibitory Concentration, E. coli 25922): > 128 µg/mL
MIC (E. coli D22; D22, read-out: Minimum Inhibitory Concentration, E. coli D22): > 128 µg/mL

NCCCN1CCN(C(=O)NC(C(=O)N[C@H]2Cc3cccc(C(=O)O)c3OB2O)c2ccc(C(=O)O)cc2)C(=O)C1=O (stereo partly drawn) [Example 39, (3R)-3-(2-(4-(3-aminopropyl)-2,3-dioxopiperazine-1-carboxamido)-2-(4-carboxyphenyl)acetamido)-2-hydroxy-3,4-dihydro-2H-benzo[e][1,2]oxaborinine-8-carboxylic acid]
MIC [1]: > 128 µg/mL
MIC [2]: 8 to 16 µg/mL (≈ 13.8 to 27.5 µM)
MIC (A. baumannii ATCC 19606; [5]): > 128 µg/mL
MIC [3]: > 128 µg/mL
MIC (P. aeruginosa ATCC 35151; [6]): < 0.25 µg/mL
MIC (E. coli 901C; [7]): 0.5 to 1 µg/mL (≈ 0.86 to 1.72 µM)
MIC [4]: 32 to 64 µg/mL (≈ 55 to 110 µM)
MIC (P. aeruginosa ATCC 27853; [8]): 8 to 16 µg/mL (≈ 13.8 to 27.5 µM)
MIC (E. coli AG100; [9]): 8 to 16 µg/mL (≈ 13.8 to 27.5 µM)
MIC (E. coli AG100A): 8 to 16 µg/mL (≈ 13.8 to 27.5 µM)
MIC (E. coli ATCC 25922; [10]): 8 to 16 µg/mL (≈ 13.8 to 27.5 µM)
MIC (E. coli D22; [11]): 2 to 4 µg/mL (≈ 3.44 to 6.88 µM)
